Experimental data published in patent US8513271B2, “Pyrimidine compounds as delta opioid receptor modulators” (Janssen Pharmaceutica, NV, priority 2009, dated 2013).
pEC50, pKi: −log10 of the molar value. Where two headings read alike, the source gives them in different places.

Columns and labels:
delta opioid receptor [1] = molecular target: T1, delta opioid receptor (Rattus norvegicus, UniProt P33533); assay: Rat brain delta opioid receptor binding assay; settings: rat forebrain, [3H]naltrindole ligand
T1 construct: the forebrains were homogenized in Tris buffer in a Teflon®-glass homogenizer; from tissue; host or cells: forebrain of male Wistar rats, particulate (membrane) preparation
T1 sequence (P33533 whole entry): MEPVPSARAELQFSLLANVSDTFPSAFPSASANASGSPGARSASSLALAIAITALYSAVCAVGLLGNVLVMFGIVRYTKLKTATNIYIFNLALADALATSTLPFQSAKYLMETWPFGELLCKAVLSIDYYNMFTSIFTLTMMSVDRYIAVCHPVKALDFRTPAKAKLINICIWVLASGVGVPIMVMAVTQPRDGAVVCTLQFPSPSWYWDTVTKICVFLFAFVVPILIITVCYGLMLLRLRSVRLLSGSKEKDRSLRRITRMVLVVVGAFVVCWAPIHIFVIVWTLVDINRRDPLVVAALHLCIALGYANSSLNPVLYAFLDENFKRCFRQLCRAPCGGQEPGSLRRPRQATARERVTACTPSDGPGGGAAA

delta opioid receptor [2] = molecular target: T2, delta opioid receptor (Mus musculus, UniProt P32300); assay: [35S]GTPγS binding assay in NG108-15 cell membranes (delta opioid functional assay), 200 nM screen; type: biochemical; settings: NG108-15 cell membranes; for pEC50 / EC50 / GTPγS δ-RelEfficacy @200 nM: averages if tested more than once; for pEC50: read-out: GTPγS δ-opioid receptor EC50; for GTPγS δ-opioid receptor Rel Efficacy: relative efficacy from dose response; for EC50: GTPγS δ-opioid receptor EC50 (μM); for GTPγS δ-RelEfficacy @200 nM: 200 nM test compound, relative to calculated max of SNC80 dose response curve
T2 construct: NG108-15 cell membranes were purchased from Applied Cell Sciences (Rockville, Md.); host or cells: NG108-15 cell membranes
T2 sequence (P32300 whole entry): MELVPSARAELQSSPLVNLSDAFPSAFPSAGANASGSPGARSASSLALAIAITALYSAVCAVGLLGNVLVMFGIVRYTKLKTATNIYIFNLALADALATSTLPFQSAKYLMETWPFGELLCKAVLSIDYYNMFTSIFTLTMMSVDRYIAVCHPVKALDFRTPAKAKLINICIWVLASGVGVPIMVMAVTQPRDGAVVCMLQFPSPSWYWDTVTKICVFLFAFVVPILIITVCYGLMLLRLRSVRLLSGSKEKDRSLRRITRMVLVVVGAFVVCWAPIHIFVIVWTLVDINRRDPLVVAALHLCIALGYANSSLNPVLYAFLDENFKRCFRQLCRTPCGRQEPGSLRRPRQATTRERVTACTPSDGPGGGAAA

[3] = read-out: δ-binding (Naltrindole ligand) Ki
[4] = δ-binding (Naltrindole ligand) Ki

## COc1ccc(Oc2nc(-c3cncnc3)ncc2NC[C@H]2CCCC[C@@H]2N)cc1 [Cpd 300]
Delta opioid receptor [1]; [3]
  pKi: 7.68
Delta opioid receptor [2]
  pEC50: 5.98
  GTPγS δ-opioid receptor Rel Efficacy: 0.968

## COc1ccc(Oc2nc(-c3cncc(C#N)c3)ncc2NC[C@H](C)N)cc1 [Cpd 292]
Delta opioid receptor [1]; [4]
  pKi: 8.70
Delta opioid receptor [2]
  pEC50: 6.44

## COc1ccc(Oc2nc(-c3cncc(C#N)c3)ncc2NCC2CNCCO2)cc1 (centres unmarked) [Cpd 275]
Delta opioid receptor [1]; [4]
  pKi: 7.34
Delta opioid receptor [2]
  pEC50: 6.04

## CCCCOc1ccc(Oc2nc(-c3cncnc3)ncc2NC[C@@H]2CCCN2)cc1 [Cpd 126]
Delta opioid receptor [1]; [3]
  pKi: 6.25

## COc1ccc(Oc2nc(-c3cccc4[nH]ccc34)ncc2NC[C@@H]2CCCN2)cc1 [Cpd 117]
Delta opioid receptor [1]; [3]
  pKi: 6.80

## N#Cc1cncc(-c2ncc(NC[C@@H]3CCCN3)c(Oc3ccc(OCC(F)(F)F)cc3)n2)c1 [Cpd 122]
Delta opioid receptor [1]; [3]
  pKi: 6.91

## COc1ccc(Oc2nc(-c3cnccn3)ncc2NC[C@@H]2CCCN2)cc1 [Cpd 120]
Delta opioid receptor [1]; [3]
  pKi: 6.98

## COc1ccc(Oc2nc(-c3cncc(S(C)(=O)=O)c3)ncc2NC[C@@H]2CCCN2)cc1 [Cpd 108]
Delta opioid receptor [1]; [3]
  pKi: 6.97

## CCCCOc1ccc(Oc2nc(-c3cncc(F)c3)ncc2NC[C@@H]2CCCN2)cc1 [Cpd 127]
Delta opioid receptor [1]; [3]
  pKi: 6.65

## COc1ccc(Oc2nc(-c3cccc4cc[nH]c34)ncc2NC[C@@H]2CCCN2)cc1 [Cpd 119]
Delta opioid receptor [1]; [3]
  pKi: 5.40

## COc1ccc(Oc2nc(-c3cncc(C)c3)ncc2NC2CCCC(N)C2)cc1 (centres unmarked) [Cpd 315]
Delta opioid receptor [2]
  EC50: 0.042 µM
  GTPγS δ-opioid receptor Rel Efficacy: 1.019

## COc1ccc(Oc2nc(-c3cncc(C)c3)ncc2NCCN)cc1 [Cpd 296]
Delta opioid receptor [2]
  pEC50: 6.37
  GTPγS δ-opioid receptor Rel Efficacy: 0.938

## COc1ccc(Oc2nc(-c3cncc(CO)c3)ncc2NC[C@@H]2CCCN2)cc1 [Cpd 269, (5-{4-(4-Methoxy-phenoxy)-5-[(pyrrolidin-2-(S)-ylmethyl)-amino]-pyrimidin-2-yl}-pyridin-3-yl)-methanol]
Delta opioid receptor [2]
  EC50: 0.053 µM
  GTPγS δ-opioid receptor Rel Efficacy: 0.984

## COc1ccc(Oc2nc(-c3cncc(F)c3)ncc2NCC2CNCCO2)cc1 (centres unmarked) [Cpd 276]
Delta opioid receptor [1]; [3]
  pKi: 6.64

## O=C(Nc1ccc(Oc2nc(-c3cncc(F)c3)ncc2NC[C@@H]2CCCN2)cc1)OCc1ccccc1 [Cpd 197]
Delta opioid receptor [2]
  GTPγS δ-RelEfficacy @200 nM: 0.411
  pEC50: 6.84
  GTPγS δ-opioid receptor Rel Efficacy: 1.289

## CCCCOc1ccc(Oc2nc(-c3cncc(C#N)c3)ncc2NC[C@@H]2CCCN2)cc1 [Cpd 125]
Delta opioid receptor [1]; [4]
  pKi: 7.11

## COc1ccc(Oc2nc(-c3cncc(C#N)c3)ncc2N[C@H]2CCCNC2)cc1 [Cpd 207]
Delta opioid receptor [2]
  GTPγS δ-RelEfficacy @200 nM: 0.963
  GTPγS δ-opioid receptor Rel Efficacy: 1.047

## COc1ccc(Oc2nc(-c3cncc(C#N)c3)ncc2N2CCC[C@H](N)C2)cc1 [Cpd 329]
Delta opioid receptor [2]
  GTPγS δ-RelEfficacy @200 nM: 0.475
  pEC50: 6.86
  GTPγS δ-opioid receptor Rel Efficacy: 1.006

## CC[C@H]1CNCCN1c1cnc(-c2cncc(OC)c2)nc1Oc1ccc(OC)cc1 [Cpd 360]
Delta opioid receptor [2]
  EC50: 0.013 µM
  GTPγS δ-opioid receptor Rel Efficacy: 1.015

## COc1ccc(Oc2nc(-c3cncc(C#N)c3)ncc2N2CCC[C@@H]2CN)cc1 [Cpd 334]
Delta opioid receptor [2]
  GTPγS δ-RelEfficacy @200 nM: 0.423

## COc1ccc(Oc2nc(-c3cncc(C#N)c3)ncc2NCc2[nH]cnc2C)cc1 [Cpd 285, 5-{4-(4-Methoxy-phenoxy)-5-[(5-methyl-3H-imidazol-4-ylmethyl)-amino]-pyrimidin-2-yl}-nicotinonitrile]
Delta opioid receptor [2]
  GTPγS δ-RelEfficacy @200 nM: 0.730
  EC50: 0.027 µM
  GTPγS δ-opioid receptor Rel Efficacy: 0.782

## COc1ccc(Oc2nc(-c3cccnc3)ncc2NC2CCCC(N)C2)cc1 (single isomer, unassigned) [Cpd 307]
Delta opioid receptor [2]
  GTPγS δ-RelEfficacy @200 nM: 0.880
  EC50: 0.011 µM
  GTPγS δ-opioid receptor Rel Efficacy: 1.191

## N#Cc1cncc(-c2ncc(NC[C@@H]3CCCN3)c(Oc3cccc(O)c3)n2)c1 [Cpd 231]
Delta opioid receptor [2]
  GTPγS δ-RelEfficacy @200 nM: 1.159
  EC50: 0.005 µM
  GTPγS δ-opioid receptor Rel Efficacy: 1.113

## CCc1ccc(Oc2nc(-c3cncc(F)c3)ncc2NC[C@@H]2CCCN2)cc1 [Cpd 182]
Delta opioid receptor [2]
  GTPγS δ-RelEfficacy @200 nM: 0.470
  pEC50: 6.42
  GTPγS δ-opioid receptor Rel Efficacy: 1.065

## COc1ccc(Oc2nc(-c3cncc(C)c3)ncc2N[C@H]2CCCNC2)cc1 [Cpd 259]
Delta opioid receptor [2]
  EC50: 0.0749 µM
  GTPγS δ-opioid receptor Rel Efficacy: 1.030

## COc1ccc(Oc2nc(-c3cncc(C#N)c3)ncc2N2CCNCC2)cc1 [Cpd 325]
Delta opioid receptor [2]
  GTPγS δ-RelEfficacy @200 nM: 0.866
  EC50: 0.011 µM
  GTPγS δ-opioid receptor Rel Efficacy: 1.042

## COc1ccc(Oc2nc(-c3ccc4cc[nH]c4c3)ncc2NC[C@@H]2CCCN2)cc1 [Cpd 118]
Delta opioid receptor [1]; [3]
  pKi: 6.81

## CCN(CC)C(=O)c1ccc(Oc2nc(-c3cccnc3)ncc2NC[C@@H]2CCCN2)cc1 [Cpd 175]
Delta opioid receptor [2]
  GTPγS δ-RelEfficacy @200 nM: 0.005

## COc1ccc(Oc2nc(-c3cncc(C)c3)ncc2N2CC[C@@H](N)C2)cc1 [Cpd 352]
Delta opioid receptor [2]
  EC50: 0.079 µM
  GTPγS δ-opioid receptor Rel Efficacy: 0.967

## CC(=O)Oc1cccc(Oc2nc(-c3cncc(C#N)c3)ncc2NC[C@@H]2CCCN2)c1 [Cpd 228]
Delta opioid receptor [2]
  GTPγS δ-RelEfficacy @200 nM: 1.039
  EC50: 0.006 µM
  GTPγS δ-opioid receptor Rel Efficacy: 1.082

## CC(=O)Oc1cccc(Oc2nc(-c3cncc(C)c3)ncc2NC[C@@H]2CCCN2)c1 [Cpd 251]
Delta opioid receptor [2]
  GTPγS δ-RelEfficacy @200 nM: 0.955
  EC50: 0.015 µM
  GTPγS δ-opioid receptor Rel Efficacy: 1.145

## Cc1ccc(Oc2nc(-c3cncc(C#N)c3)ncc2NC[C@@H]2CCCN2)cc1F [Cpd 183]
Delta opioid receptor [2]
  GTPγS δ-RelEfficacy @200 nM: 0.723
  EC50: 0.091 µM
  GTPγS δ-opioid receptor Rel Efficacy: 1.091

## CC[C@@H]1CN(c2cnc(-c3cncc(OC)c3)nc2Oc2ccc(OC)cc2)CCN1 [Cpd 361]
Delta opioid receptor [2]
  EC50: 0.07 µM
  GTPγS δ-opioid receptor Rel Efficacy: 0.962

## CS(=O)(=O)Nc1ccc(Oc2nc(-c3cccnc3)ncc2NC[C@@H]2CCCN2)cc1 [Cpd 214]
Delta opioid receptor [2]
  GTPγS δ-RelEfficacy @200 nM: 0.115

## CNCCNc1cnc(-c2cccnc2)nc1Oc1ccc(OC)cc1 [Cpd 297]
Delta opioid receptor [2]
  pEC50: 6.37
  GTPγS δ-opioid receptor Rel Efficacy: 0.820

## COc1ccc(Oc2nc(-c3cncc(Cl)c3)ncc2NC[C@@H]2CCCN2)cc1C [Cpd 210]
Delta opioid receptor [2]
  GTPγS δ-RelEfficacy @200 nM: 0.730
  EC50: 0.044 µM
  GTPγS δ-opioid receptor Rel Efficacy: 1.150

## Cc1ccc(Oc2nc(-c3cncc(Cl)c3)ncc2NC[C@@H]2CCCN2)cc1F [Cpd 186]
Delta opioid receptor [2]
  GTPγS δ-RelEfficacy @200 nM: 0.466
  pEC50: 6.48
  GTPγS δ-opioid receptor Rel Efficacy: 1.113

## COc1ccc(Oc2nc(-c3cc(C)cnc3Cl)ncc2NC[C@@H]2CCCN2)cc1 [Cpd 268]
Delta opioid receptor [2]
  EC50: 0.081 µM
  GTPγS δ-opioid receptor Rel Efficacy: 1.023

## COc1ccc(Oc2nc(-c3cccnc3)ncc2NC2CCCC(N)C2)cc1 (centres unmarked) [Cpd 306]
Delta opioid receptor [2]
  GTPγS δ-RelEfficacy @200 nM: 0.910
  EC50: 0.031 µM
  GTPγS δ-opioid receptor Rel Efficacy: 1.127

## N#Cc1cncc(-c2ncc(NC[C@@H]3CCCN3)c(Oc3ccc(C(F)(F)F)cc3)n2)c1 [Cpd 220]
Delta opioid receptor [2]
  GTPγS δ-RelEfficacy @200 nM: 0.457
  pEC50: 6.34
  GTPγS δ-opioid receptor Rel Efficacy: 0.890

## COc1ccc(Oc2nc(-c3cncc(C#N)c3)ncc2N2CCC(N)CC2)cc1 [Cpd 333]
Delta opioid receptor [2]
  GTPγS δ-RelEfficacy @200 nM: 0.664
  pEC50: 6.93
  GTPγS δ-opioid receptor Rel Efficacy: 1.116

## COc1ccc(Oc2nc(-c3cccnc3)ncc2N[C@H]2CC[C@@H](N)CC2)cc1 [Cpd 305]
Delta opioid receptor [2]
  GTPγS δ-RelEfficacy @200 nM: 0.780
  EC50: 0.09 µM
  GTPγS δ-opioid receptor Rel Efficacy: 1.081

## Clc1cncc(-c2ncc(NC[C@@H]3CCCN3)c(Oc3ccccc3Cl)n2)c1 [Cpd 229]
Delta opioid receptor [2]
  GTPγS δ-RelEfficacy @200 nM: 0.715
  EC50: 0.061 µM
  GTPγS δ-opioid receptor Rel Efficacy: 0.890

## COc1ccc(Oc2nc(-c3cc(Cl)cc(Cl)c3)ncc2NC[C@@H]2CCCN2)cc1 [Cpd 94]
Delta opioid receptor [1]; [3]
  pKi: 6.84
